Like-named read-outs stand apart in the source and are kept apart here.
Experiments:
[1] = molecular target: chloramphenicol acetyltransferase (EC 2.3.1.28) (Escherichia coli, UniProt P62577); experiment: Microtitre chromogenic detection of chloramphenicol acetyltransferase (Example 10); type: biochemical; settings: Chloramphenicol acetyl transferase 5U/10 μl
Text: In a preferred assay of the invention, the enzyme chloramphenicol acetyl transferase (CAT enzyme) reacts with chloramphenicol and […] in the presence of the indicator dimethylthiazol tetrazolium (MTT) and phenazine methosulfate (PMS). The MTT serves as a hydrogen acceptor in the reaction. The reaction can be written as:
CAT+chloramphenicol+acyl coA→CAT-chloramphenicol-CoA CAT-chloramphenicol-CoA+PMS→CAT+PMS.H2+acyl-chloramphenicol+HS-CoA PMS-H2+MTT→formazan+PMS.
(§1) The BCI substrate without MTT is pale blue. PMS and MTT alone are yellow. PMS and BCI is yellow+blue which is green.
Chloramphenicol acetyl transferase (5U/10 μl) was added to each substrate combination.

[2] = test system: B-glucuronidase (EC 3.2.1.31); settings: PBS pH 5.0
Protocol: (§3) These colors result from the interaction of the enzyme and substrate with the transfer of an electron to a tetrazolium salt. The reactive product, formazan, is detected as dark blue, black. The BCI substrate without MTT is pale blue. PMS and MTT alone are yellow. PMS and BCI is yellow+blue which is green.
Four test samples were prepared. The samples A, B, C, D contained the following reactants:
10 μl of H2O was added to substrate sample A to serve as a control. 10 μl of β-glucuronidase (10 units) was added to substrate samples B, C, and D.

esterase (EC 3.1.1.1) = experiment: Microtitre chromogenic detection of esterase, de-ionized H2O (Examples 2 and 3); type: biochemical; settings: for Substrate preference / Speed of chromogenic reactions relative to other BCI substrates: esterase; for Substrate preference: BCI-substrates tested; for Speed of chromogenic reactions relative to other BCI substrates: similar concentration of substrates and enzymes; for Reaction (colour, time to detection): 1 unit esterase, de-ionized H2O
Protocol: 10 μl of esterase (1 unit) was added to substrate samples B, B′, C, C′, D, D′, and E, E′.
Five test samples were prepared.

[3] = test system: cholesterol esterase (EC3.1.1.13); experiment: Microtiter chromogenic detection of cholesterol esterase (Example 7); type: biochemical; settings: for Substrate preference: BCI-substrates tested; for Reaction (colour, time to detection): cholesterol esterase (0.05 U)
[4] = test system: beta-glucosidase (EC 3.2.1.21); settings: 0.5 units glucosidase
Protocol: The experimental results for Experiments 1-12 are described by the color change of the experimental solution. These colors result from the interaction of the enzyme and substrate with the transfer of an electron to a tetrazolium salt. The reactive product, formazan, is detected as dark blue, black. […] The reaction detected required the enzyme, substrate and tetrazolium salt.
Five test samples were prepared. The samples A, B, C, D, E contained the following reactants:
10 μl of H2O was added to substrate sample A to serve as a control. 10 μl of β-glucosidase (0.5 units) was added to substrate samples B, C, D and E.

[5] = test system: esterase activity in elastase preparation; experiment: Esterase activity and/or contamination in commercial elastase preparation (Example 5); type: biochemical
Protocol: (§2) Elastase was serially diluted twofold to signal extinction with elastase substrate. The last dilution yielding robust signal was incubated with the competitive inhibitor elastatinal for 10 minutes—with subsequent addition of esterase substrates.

esterase (EC3.1.1.1) = experiment: Microtiter chromogenic detection of esterase, PBS pH 7.4 (Example 1); type: biochemical; settings: 1 unit esterase, visual
Protocol: as §1
Four test samples were prepared.

elastase (EC 3.4.21.36) = molecular target: T1, elastase (EC 3.4.21.36) (Sus scrofa, UniProt P00772); experiment: Elastase with elastase substrate, with or without elastatinal (Example 5); type: biochemical
T1 construct: purchased Sigma lot # 17H8005
T1 sequence (P00772 27-266): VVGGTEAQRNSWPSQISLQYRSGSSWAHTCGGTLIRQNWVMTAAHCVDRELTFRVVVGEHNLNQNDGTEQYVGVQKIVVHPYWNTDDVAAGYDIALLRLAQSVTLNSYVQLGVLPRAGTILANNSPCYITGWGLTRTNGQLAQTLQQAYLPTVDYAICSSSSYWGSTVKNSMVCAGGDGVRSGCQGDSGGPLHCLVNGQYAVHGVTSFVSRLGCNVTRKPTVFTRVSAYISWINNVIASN
Protocol: as §2

[6] = test system: cholesterol oxidase (EC1.1.3.6); experiment: Microtitre chromogenic detection of cholesterol oxidase (Example 8); type: biochemical; settings: Cholesterol Oxidase 25 U/ml
Text: as §1

[7] = test system: neuraminidase (EC 3.2.1.18); experiment: Microtitre chromogenic detection of neuraminidase (Example 11); type: biochemical; settings: neuraminidase 0.1 units
Protocol: as §3
10 μl of H2O was added to substrate sample A as the substrate control. 10 μl of neuraminidase (0.1 units) was added to substrate samples B, C, D and E.

[8] = test system: Beta-N-acetylglucosaminidase (EC 3.2.1.30); experiment: Microtitre chromogenic detection of Beta-N-acetylglucosaminidase (Example 12); type: biochemical; settings: Beta-N-acetylglucoaminidase 0.125 units
Text: as §1

[9] = substrate 5 mg/ml + H2O, PMS (no MTT)
[10] = substrate 5 mg/ml + MTT, H2O (no PMS)
[11] = substrate 5 mg/ml alone (no MTT, no PMS)
[12] = substrate alone (no MTT, no PMS)
[13] = substrate 12.5 mg/ml + H2O, PMS (no MTT)
[14] = substrate 12.5 mg/ml + MTT, H2O (no PMS)
[15] = substrate 12.5 mg/ml + MTT, PMS

chloramphenicol acetyltransferase (EC 2.3.1.28), sequence (P62577 whole entry, looked up): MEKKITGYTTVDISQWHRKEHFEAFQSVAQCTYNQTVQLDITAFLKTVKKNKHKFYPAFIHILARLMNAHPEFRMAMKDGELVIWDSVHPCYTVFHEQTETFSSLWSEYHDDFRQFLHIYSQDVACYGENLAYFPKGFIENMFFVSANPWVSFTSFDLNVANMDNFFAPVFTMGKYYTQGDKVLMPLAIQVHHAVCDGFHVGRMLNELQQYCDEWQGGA

Molecule: O=C(N[C@H](CO)[C@H](O)c1ccc([N+](=O)[O-])cc1)C(Cl)Cl [Chloramphenicol]
- Reaction (colour, time to detection) ([1]; Acetyl CoA + H2O, PMS (no MTT)): orange - red (<2 minutes)
- Reaction (colour, time to detection) ([1]; Acetyl CoA + MTT, H2O (no PMS)): orange detection (>5 minutes)
- Reaction (colour, time to detection) ([1]; Acetyl CoA + MTT, PMS): yellow

Molecule: 5-Bromo-4-chloro-3-indolyl-B-D-glucuronide [BCI glucuronide]
- Reaction (colour, time to detection) ([2]; substrate 10 mg/ml + MTT, H2O (no PMS), 10 units glucuronidase): dark blue (<5 minutes)
- Reaction (colour, time to detection) ([2]; substrate + H2O (no MTT, no PMS), glucuronidase): pale blue (after 5 minutes)
- Reaction (colour, time to detection) ([2]; substrate + H2O, PMS (no MTT), 10 units glucuronidase): yellow-blue - slight change
- Reaction (colour, time to detection) ([2]; substrate + MTT, PMS, 10 units glucuronidase): dark blue (<5 minutes)

Molecule: CCCC(=O)Oc1c[nH]c2ccc(Br)c(Cl)c12 [BCI-butyrate, 5-Bromo-4-chloro-3-indolyl-butyrate]
- Substrate preference (esterase (EC 3.1.1.1)): BCI-acetate>BCI-butyrate> BCI-1,3 diacetate
- Speed of chromogenic reactions relative to other BCI substrates (esterase (EC 3.1.1.1)): much slower than the corresponding BCI-acetate reactions
- Reaction (colour, time to detection) (esterase (EC 3.1.1.1); [9]): yellow-blue (<30 minutes)
- Reaction (colour, time to detection) (esterase (EC 3.1.1.1); [10]): dark blue (<30 minutes)
- Reaction (colour, time to detection) (esterase (EC 3.1.1.1); substrate 5 mg/ml + MTT, PMS): dark blue (<20 minutes)
- Reaction (colour, time to detection) (esterase (EC 3.1.1.1); [11]): pale blue (>1 hour)
- Substrate preference ([3]; cholesterol esterase): BCI-acetate>BCI-butyrate> BCI-1,3 diacetate
- Speed of chromogenic reactions relative to other BCI substrates ([3]; cholesterol esterase, similar concentration of substrates and enzymes): much slower than the corresponding BCI-acetate reactions
- Reaction (colour, time to detection) ([3]; substrate + H2O, PMS (no MTT)): yellow-blue (<30 minutes)
- Reaction (colour, time to detection) ([3]; substrate + MTT, H2O (no PMS)): dark blue (<30 minutes)
- Reaction (colour, time to detection) ([3]; substrate + MTT, PMS): dark blue (<20 minutes)
- Reaction (colour, time to detection) [3, 12]: pale blue (>1 hour)

Molecule: 5-Bromo-4-chloro-3-indolyl-B-D-glucoside [BCI-glucoside]
- Reaction (colour, time to detection) [4, 9]: yellow-blue - slight change
- Reaction (colour, time to detection) [4, 10]: dark blue (<5 minutes)
- Reaction (colour, time to detection) ([4]; substrate 5 mg/ml + MTT, PMS): dark blue (<5 minutes)
- Reaction (colour, time to detection) [4, 11]: pale blue (>10 minutes)

Molecule: CC(=O)Oc1c[nH]c2ccc(Br)c(Cl)c12 [BCI-acetate, 5-Bromo-4-chloro-3-indolyl acetate]
- Substrate preference (esterase (EC 3.1.1.1)): BCI-acetate>BCI-butyrate> BCI-1,3 diacetate
- Reaction (colour, time to detection) (esterase (EC 3.1.1.1); [9]): yellow-blue (<30 sec)
- Reaction (colour, time to detection) (esterase (EC 3.1.1.1); [10]): dark blue (<10 sec)
- Reaction (colour, time to detection) (esterase (EC 3.1.1.1); substrate 5 mg/ml + MTT, PMS): dark blue (instant detection)
- Reaction (colour, time to detection) (esterase (EC 3.1.1.1); [11]): pale blue (>10 minutes)
- Reaction with elastase preparation, no inhibitor ([5]; Elastase + H2O, MTT, PMS, BCI-acetate): dark blue (<5 minutes)
- Substrate preference ([3]; cholesterol esterase): BCI-acetate>BCI-butyrate> BCI-1,3 diacetate
- Reaction (colour, time to detection) ([3]; substrate + H2O, PMS (no MTT)): yellow-blue (<30 see)
- Reaction (colour, time to detection) ([3]; substrate + MTT, H2O (no PMS)): dark blue (<10 sec)
- Reaction (colour, time to detection) ([3]; substrate + MTT, PMS): dark blue (instant detection)
- Reaction (colour, time to detection) [3, 12]: pale blue (>10 minutes)
- Reaction (colour, time to detection) (esterase (EC3.1.1.1); [13]): yellow-blue - slight change
- Reaction (colour, time to detection) (esterase (EC3.1.1.1); [14]): dark blue < 10 seconds)
- Reaction (colour, time to detection) (esterase (EC3.1.1.1); [15]): dark blue (instantaneous)

Molecule: CC(C)C[C@H](NC(=O)N[C@H](C(=O)N[C@@H](CCC(N)=O)C(=O)N[C@@H](C)C=O)[C@@H]1CCNC(=N)N1)C(=O)O [Elastatinal]
- Reaction with MTT, PMS, BCI-acetate after incubation with inhibitor ([5]; Elastase + Inhibitor, incubated 10 minutes): dark blue (<5 minutes)
- Reaction with elastase substrate after incubation with inhibitor (elastase (EC 3.4.21.36); Elastase + Inhibitor, incubated 10 minutes, elastase substrate N-succinyl-ALA-ALA-ALA p nitroanilide): clear (no color >10 min.)

Molecule: CC(C)CCC[C@@H](C)[C@H]1CC[C@H]2[C@@H]3CC=C4C[C@@H](O)CC[C@]4(C)[C@H]3CC[C@]12C [cholesterol]
- Reaction (colour, time to detection) ([6]; Cholesterol Std 50 mg/dl + H2O, PMS (no MTT)): yellow, no color change
- Reaction (colour, time to detection) ([6]; Cholesterol Std 50 mg/dl + MTT, H2O (no PMS)): yellow, no color change
- Reaction (colour, time to detection) ([6]; Cholesterol Std 50 mg/dl + MTT, PMS): dark blue(<1 minutes)
- Reaction (colour, time to detection) ([6]; Cholesterol Std 50 mg/dl in H2O (no MTT, no PMS)): clear, no color change

Molecule: 5-Bromo-4-chloro-3-indolyl 1,3 diacetate [BCI-1,3 diacetate]
- Substrate preference (esterase (EC 3.1.1.1)): BCI-acetate>BCI-butyrate> BCI-1,3 diacetate
- Speed of chromogenic reactions relative to other BCI substrates (esterase (EC 3.1.1.1)): much slower than the corresponding BCI-acetate and slower than the BCI-butyrate reactions
- Reaction (colour, time to detection) (esterase (EC 3.1.1.1); [9]): yellow-blue
- Reaction (colour, time to detection) (esterase (EC 3.1.1.1); [10]): dark blue (>1 hour)
- Reaction (colour, time to detection) (esterase (EC 3.1.1.1); substrate 5 mg/ml + MTT, PMS): dark blue (>40 minutes)
- Reaction (colour, time to detection) (esterase (EC 3.1.1.1); [11]): pale faint blue
- Substrate preference ([3]; cholesterol esterase): BCI-acetate>BCI-butyrate> BCI-1,3 diacetate

Molecule: CC(=O)N[C@H]1[C@H]([C@H](O)[C@H](O)CO)O[C@@](Oc2c[nH]c3ccc(Br)c(Cl)c23)(C(=O)O)C[C@@H]1O [BCI-acetylneuraminic acid, 5-bromo-4-chloro-3-indolyl acetyl neuraminic acid]
- Reaction (colour, time to detection) ([7]; substrate + H2O, PMS (no MTT)): green
- Reaction (colour, time to detection) ([7]; substrate + MTT, H2O (no PMS)): light blue formazan reaction
- Reaction (colour, time to detection) ([7]; substrate + MTT, PMS): dark blue (>5 minutes)
- Reaction (colour, time to detection) ([7]; substrate in H2O (no MTT, no PMS)): pale blue (<2 minutes)

Molecule: CC(=O)N[C@H]1[C@H](Oc2c[nH]c3ccc(Br)c(Cl)c23)O[C@H](CO)[C@@H](O)[C@@H]1O [BCI-acetylglucosaminide]
- Reaction (colour, time to detection) [8, 13]: green
- Reaction (colour, time to detection) [8, 14]: light blue formazan reaction
- Reaction (colour, time to detection) [8, 15]: dark blue(<2 minutes)
- Reaction (colour, time to detection) ([8]; substrate 12.5 mg/ml alone (no MTT, no PMS)): light blue (>5 minutes)

Molecule: C[C@H](NC(=O)CCC(=O)O)C(=O)N[C@@H](C)C(=O)N[C@@H](C)C(=O)Nc1ccc([N+](=O)[O-])cc1 [Elastase substrate, N-succinyl-ALA-ALA-ALA p nitroanilide]
- Reaction with elastase, no inhibitor (elastase (EC 3.4.21.36); Elastase + H2O, elastase substrate): yellow

From patent US20010014462A1, “Direct cholesterol esterase assay” (priority 1997, published 2001)
